Assay results as given in patent publication US10011570B2, “Nucleic acid binding dyes with improved safety” (Biotium, Inc., priority 2013, dated 2018).

Legend:
[1] = system: Pimephales promelas (Fathead minnow); assay: California Title 22 toxicity test for hazardous waste characterization; assay type: in vivo; settings: 0.65 uM dye solution in water, aquatic life
Description: (§1) Stock solutions of Dye No. 11 and Dye No. 4 at 0.65 uM each in water were submitted to Nautilus Environmental (San Diego, Calif.) for California Title 22 toxicity testing for hazardous waste characterization. The solutions were tested at 750, 500, and 250 mg/L plus lab control in Pimephales promelas (Fathead minnow) in two replicates of 10 fish each according to the California Department of Fish and Game 1988 Acute Procedures.

[2] = as above; assay type: in vivo, Pimephales promelas; settings: Pimephales promelas (fathead minnow), in vivo; 0.65 uM dye solution in water tested at 750, 500 and 250 mg/L, Fathead minnow; read-out: median lethal concentration (LC50)
Description: as §1

HeLa cells = assay: Live cell staining (cell membrane permeability, confocal microscopy); assay type: cell-based, human; settings: for cell staining after 5 minutes incubation / cell staining after 30 minutes incubation: HeLa cells, 37 C, dyes at 0.65 uM, Sybr Safe at 1×; for cellular staining of live cells (cell membrane permeability): normal working concentration used in gel staining, time not stated (FIG. 12)
Description: Dye No. 4, Dye No. […] and SYBR Safe are tested for their cell membrane permeability. HeLa cells were incubated with 1× Sybr Safe, 0.65 uM Dye No 4 and 0.65 uM Dye No. 11 in cell culture medium at 37 C. Hoechst 33342 (1 ug/mL) was included to stain DNA with blue fluorescence. Cells were imaged after 5 minutes and 30 minutes incubation on the appropriate fluorescence channel (FITC for Sybr Safe and Dye No. 4, and Cy3 for Dye No. […]) on a Zeiss LSM 700 confocal microscope. […] Hoechst staining for the same microscopic field is shown below each image (D-F, J-L).

[3] = system: 1 kb DNA ladder in 1% agarose gel; assay: Post staining of agarose gels; settings: 0.65 uM dye in water, 30 minutes, 1 kb DNA ladder 200-25 ng per lane
Description: Two-fold dilutions of 1 kb DNA ladder (Biotium, 200 ng-25 ng) or low-molecular weight DNA ladder (NEB, 50-12.5 ng/lane) were separated on 1% agarose/1×TBE gels in 1× TBE at 110 V for 90 minutes. Gels were post-stained with dyes at indicated concentrations in 50 mL staining solution with rocking for 30 minutes at room temperature, protected from light. The staining solutions were prepared by adding a dye stock solution in DMSO to water. […] In particular, dyes of the invention can readily penetrate dense polyacrylamide gels. […] Use of low dye concentration in the staining, coupled with the dyes' low cell membrane permeability (See below), makes the dyes safer to handle. Compound 25 of U.S. Pat. No. 7,446,202 is an asymmetric cyanine dye comprising a negatively charged substituent. The dye is described to be a sensitive dsDNA binding dye useful for selective dsDNA quantitation in solution. In this experiment, this dye is compared with the asymmetric cyanine dye Dye No. 4 of the present invention in detecting dsDNA in agarose gel. 1 kb DNA ladder (Biotium) was loaded on a 1% agarose/1×TBE gel at 200, 100, 50, or 25 ng per lane in duplicate and separated by electrophoresis at 100V. […]

Calf Thymus DNA; RNA = assay: Nucleic acid detection in solution (fluorescence titration); assay type: binding; settings: 2 uM Dye No. 4 or 1.3 uM Compound 25 in TE buffer, fluorescence microplate reader
Description: Compound 25 of U.S. Pat. No. 7,446,202 and Dye No. 4 were compared in nucleic acid detection in solution. Calf Thymus DNA (Sigma) was used to titrate 2 uM Dye No. 4 or 1.3 uM Compound 25 of U.S. Pat. No. 7,446,202 in TE buffer. The fluorescence of the solution was measured on a fluorescence microplate reader (200 uL volume/well and 5 minutes incubation time). Same optical setting was used for both dyes as the two dyes have nearly identical spectral profile.

[4] = system: 1 kb DNA ladder in 1% agarose TBE gels; assay: Prestaining of agarose gels; settings: dye mixed with DNA in loading buffer, compared with propidium iodide
Description: Two-fold dilutions of 1 kb DNA ladder (200 ng-25 ng per lane) were mixed with propidium iodide (PI) or Dye No, 10 in DNA loading buffer at the final concentrations indicated and separated on 1% agarose TBE gels containing no additional DNA dye.

| SMILES | classification under CCR Title 22 regulations [1] | LC50 [2] | cell staining after 5 minutes incubation (HeLa cells) | cell staining after 30 minutes incubation (HeLa cells) | cellular staining of live cells (cell membrane permeability) (HeLa cells) | signal of stained gel compared with Compound 25 [3] | nucleic acid binding profile (dsDNA versus RNA) (Calf Thymus DNA; RNA) | brightness in prestaining of gels [4] |
| --- | --- | --- | --- | --- | --- | --- | --- | --- |
| C[N+](C)(C)CCC[n+]1c(-c2ccc(S(=O)(=O)[O-])cc2)c2cc(N)ccc2c2ccc(N)cc21.[I-] [Dye No. 11] | non-hazardous | > 750 mg/L | no staining was detectable | no staining was detectable | did not produce any cellular staining at all | – | – | – |
| C[n+]1c(C=C2C=CN(CCCSCC(N)C(=O)[O-])c3ccccc32)sc2ccccc21.I (stereo not shown) [Dye No. 4] | non-hazardous | > 750 mg/L | no staining was detectable | no staining was detectable | did not produce any cellular staining at all | significantly higher signal | binds to both dsDNA and RNA | – |
| CC[N+](C)(CC)CCC[n+]1c(-c2ccc(S(=O)(=O)[O-])cc2)c2cc(N)ccc2c2ccc(N)cc21.[I-] [Dye No. 10] | – | – | – | – | – | – | – | as bright as PI |
